Converted amounts (≈) assume the structure as drawn.
Columns and labels:
[1] = system: Staphylococcus aureus; experiment: Antibacterial activity against Staphylococcus aureus SA-K1902 bearing norA- deficient mutation by microdilution technique; type: functional
[2] = system: Staphylococcus aureus; experiment: Antibacterial activity against methicillin and ciprofloxacin-resistant Staphylococcus aureus 25A by microdilution technique; type: functional
[3] = system: Escherichia coli; experiment: Antibacterial activity against Escherichia coli ATCC 25922 by microdilution technique; type: functional
[4] = system: Staphylococcus aureus; experiment: Antibacterial activity against Staphylococcus aureus ATCC 25923 by microdilution technique; type: functional
[5] = system: Staphylococcus aureus; experiment: Antibacterial activity against Staphylococcus aureus SA-K1904 bearing norA++ efficient mutation by microdilution technique; type: functional
[6] = system: Staphylococcus aureus; experiment: Antibacterial activity against wild-type norA expressing Staphylococcus aureus SA-1199 by microdilution technique; type: functional
[7] = system: Staphylococcus aureus; experiment: Antibacterial activity against Staphylococcus aureus SA-1199B norA++ and A116E GrlA mutation by microdilution technique; type: functional
[8] = system: Staphylococcus aureus; experiment: Antibacterial activity against Staphylococcus aureus K1035 bearing wild-type GyrA and S80F mutant GrlA by microdilution technique; type: functional
[9] = system: Staphylococcus aureus; experiment: Antibacterial activity against Staphylococcus aureus K1134 bearing wild-type GyrA and S80Y mutant GrlA by microdilution technique; type: functional
[10] = system: Staphylococcus aureus; experiment: Antibacterial activity against Staphylococcus aureus K1305 bearing wild-type GyrA and E84K mutant GrlA by microdilution technique; type: functional
[11] = system: Staphylococcus aureus; experiment: Antibacterial activity against Staphylococcus aureus K1628 bearing S84L mutant GyrA and S80F mutant GrlA by microdilution technique; type: functional
[12] = system: Staphylococcus aureus; experiment: Antibacterial activity against Staphylococcus aureus K1640 bearing S84L mutant GyrA and S80Y mutant GrlA by microdilution technique; type: functional
[13] = system: Staphylococcus aureus; experiment: Antibacterial activity against Staphylococcus aureus SA-1199B by EtBr efflux assay; type: functional
[14] = biological target: T1, Quinolone resistance protein NorA (Staphylococcus aureus) (UniProt P0A0J7); experiment: Inhibition of NorA in Staphylococcus aureus SA-1199B assessed as reduction in ethidium bromide efflux at 50 uM by fluorimetry; design: scale not given: the % may be the effect or the level left
T1 sequence (whole entry): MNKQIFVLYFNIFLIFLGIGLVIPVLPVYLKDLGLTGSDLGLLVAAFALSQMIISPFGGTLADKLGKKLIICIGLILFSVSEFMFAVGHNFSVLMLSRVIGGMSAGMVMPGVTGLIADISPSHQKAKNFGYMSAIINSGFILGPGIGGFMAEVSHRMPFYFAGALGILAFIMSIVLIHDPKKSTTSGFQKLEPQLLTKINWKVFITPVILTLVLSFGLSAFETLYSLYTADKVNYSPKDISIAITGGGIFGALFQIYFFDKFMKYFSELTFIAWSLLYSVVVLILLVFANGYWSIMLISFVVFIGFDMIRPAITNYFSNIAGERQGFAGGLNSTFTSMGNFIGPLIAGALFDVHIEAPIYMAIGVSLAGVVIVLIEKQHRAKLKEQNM

In the case of Cc1c(N2CCc3ccccc3C2)c(N)cc2c(=O)c(C(=O)O)cn(C3CC3)c12, the MIC [1] is reported as at most 0.02 µg/mL, the MIC [2] is reported as at most 0.12 µg/mL and the MIC [3] is reported as at most 0.12 µg/mL. For the same compound, the MIC [4] was at most 0.12 µg/mL, the MIC [5] was at most 0.02 µg/mL and the MIC [6] was at most 0.02 µg/mL. The MIC [7] was at most 0.02 µg/mL, the MIC [8] was at most 0.02 µg/mL and the MIC [9] was at most 0.02 µg/mL. It also gave an MIC [10] of at most 0.02 µg/mL, an MIC [11] of 1.25 µg/mL (≈ 3.21 µM) and an MIC [12] of 0.63 µg/mL (≈ 1.62 µM).
With CO/N=C1\CCSC2=C1CN(c1cc3c(cc1F)c(=O)c(C(=O)O)cn3C1CC1)CC2 the MIC [1] was 1.25 µg/mL (≈ 2.82 µM), the MIC [2] was 1 µg/mL (≈ 2.25 µM) and the MIC [3] was 32 µg/mL (≈ 72.2 µM). The MIC [4] was 0.25 µg/mL (≈ 0.564 µM), the MIC [5] was 1.25 µg/mL (≈ 2.82 µM) and the MIC [6] was 1.25 µg/mL (≈ 2.82 µM). For the same compound, the MIC [7] was 2.5 µg/mL (≈ 5.64 µM).
COc1c(N2C[C@@H]3CCCN[C@@H]3C2)c(F)cc2c(=O)c(C(=O)O)cn(C3CC3)c12 [MOXIFLOXACIN] was tested, and the MIC [1] was 0.08 µg/mL (≈ 0.199 µM), the MIC [2] was 2 µg/mL (≈ 4.98 µM) and the MIC [3] was under 0.08 µg/mL. The MIC [4] was under 0.08 µg/mL, the MIC [5] was 0.08 µg/mL (≈ 0.199 µM) and the MIC [6] was 0.08 µg/mL (≈ 0.199 µM). For the same compound, the MIC [7] was 0.25 µg/mL (≈ 0.623 µM), the MIC [8] was 0.31 µg/mL (≈ 0.772 µM) and the MIC [9] was 0.31 µg/mL (≈ 0.772 µM). It also gave an MIC [10] of 0.31 µg/mL (≈ 0.772 µM), an MIC [11] of 5 µg/mL (≈ 12.5 µM) and an MIC [12] of 2.5 µg/mL (≈ 6.23 µM).
O=C(O)c1cn(C2CC2)c2cc(N3CCC4=C(C3)C(O)CCS4)c(F)cc2c1=O (stereo unspecified) gave an MIC [1] of 0.04 µg/mL (≈ 0.096 µM), an MIC [2] of 8 µg/mL (≈ 19.2 µM) and an MIC [3] of 64 µg/mL (≈ 154 µM). It also gave an MIC [4] of 0.08 µg/mL (≈ 0.192 µM), an MIC [5] of 0.16 µg/mL (≈ 0.384 µM) and an MIC [6] of 0.04 µg/mL (≈ 0.096 µM). The MIC [7] was 0.16 µg/mL (≈ 0.384 µM), the MIC [8] was 0.63 µg/mL (≈ 1.51 µM) and the MIC [9] was 1.25 µg/mL (≈ 3 µM). For the same compound, the MIC [10] was 0.63 µg/mL (≈ 1.51 µM), the MIC [11] was over 10 µg/mL and the MIC [12] was over 10 µg/mL.
For Cc1c(N2CCC3=C(C2)/C(=N/O)C(C)CS3)c(N)cc2c(=O)c(C(=O)O)cn(C3CC3)c12 (stereo unspecified), the MIC [1] was 0.31 µg/mL (≈ 0.682 µM), the MIC [2] was 8 µg/mL (≈ 17.6 µM) and the MIC [3] was 0.5 µg/mL (≈ 1.1 µM). For the same compound, the MIC [4] was 0.16 µg/mL (≈ 0.352 µM), the MIC [5] was 0.31 µg/mL (≈ 0.682 µM) and the MIC [6] was 0.31 µg/mL (≈ 0.682 µM). It also gave an MIC [7] of 1.25 µg/mL (≈ 2.75 µM).
For CC1CSC2=C(CN(c3cc4c(cc3N)c(=O)c(C(=O)O)cn4C3CC3)CC2)/C1=N/O (stereo unspecified), the MIC [1] was 1.56 µg/mL (≈ 3.54 µM), the MIC [2] was 32 µg/mL (≈ 72.6 µM) and the MIC [3] was 32 µg/mL (≈ 72.6 µM). The MIC [4] was 6.25 µg/mL (≈ 14.2 µM), the MIC [5] was 3.13 µg/mL (≈ 7.11 µM) and the MIC [6] was 1.56 µg/mL (≈ 3.54 µM). The MIC [7] was 6.25 µg/mL (≈ 14.2 µM).
CO/N=C1/C2=C(CCN(c3cc4c(cc3F)c(=O)c(C(=O)O)cn4C3CC3)C2)SCC1C (stereo unspecified) gave an MIC [1] of 2.5 µg/mL (≈ 5.46 µM), an MIC [2] of 8 µg/mL (≈ 17.5 µM) and an MIC [3] of 64 µg/mL (≈ 140 µM). It also gave an MIC [4] of 2 µg/mL (≈ 4.37 µM), an MIC [5] of 2.5 µg/mL (≈ 5.46 µM) and an MIC [6] of 2.5 µg/mL (≈ 5.46 µM). It also gave an MIC [7] of 5 µg/mL (≈ 10.9 µM).
CCOC(=O)c1cn(C2CC2)c2cc(N3CCNCC3)c(F)cc2c1=O [CIPROFLOXACIN ETHYL ESTER] was tested, and the MIC50 [13] was over 100 µg/mL and the Activity [14] was 20.8%.
With CCOC(=O)c1cn(C2CC2)c2c(C)c(N3CCC4=C(C3)C(O)CCS4)c(N)cc2c1=O (stereo unspecified) the MIC [13] was over 100 µg/mL and the Activity [14] was 47.3%.
Nc1cc2c(=O)c(C(=O)O)cn(C3CC3)c2cc1N1CCC2=C(C1)/C(=N/O)CCS2 was tested, and the MIC [1] was 1.56 µg/mL (≈ 3.66 µM), the MIC [2] was 16 µg/mL (≈ 37.5 µM) and the MIC [3] was 2 µg/mL (≈ 4.69 µM). For the same compound, the MIC [4] was 2 µg/mL (≈ 4.69 µM), the MIC [5] was 6.25 µg/mL (≈ 14.7 µM) and the MIC [6] was 1.56 µg/mL (≈ 3.66 µM). For the same compound, the MIC [7] was 12.5 µg/mL (≈ 29.3 µM).
Compound CCOC(=O)c1cn(C2CC2)c2c(C)c(N3CCC4=C(C3)C(=O)C(C)CS4)c(N)cc2c1=O (stereo unspecified) has an MIC [13] of over 100 µg/mL and an Activity [14] of 50.5%.
With Cc1c(N2CCC3=C(C2)C(O)CCS3)c(N)cc2c(=O)c(C(=O)O)cn(C3CC3)c12 (stereo unspecified) the MIC [1] was over 100 µg/mL, the MIC [2] was over 128 µg/mL and the MIC [3] was over 128 µg/mL. It also gave an MIC [4] of over 128 µg/mL, an MIC [5] of over 100 µg/mL and an MIC [6] of over 100 µg/mL. For the same compound, the MIC [7] was over 100 µg/mL.
In the case of COC(=O)[C@H]1[C@H]2C[C@@H]3c4[nH]c5cc(OC)ccc5c4CCN3C[C@H]2C[C@@H](OC(=O)c2cc(OC)c(OC)c(OC)c2)[C@@H]1OC, the Activity [14] is reported as 84.8%.
Work on O=C1CCSC2=C1CN(c1cc3c(cc1F)c(=O)c(C(=O)O)cn3C1CC1)CC2 yielded an MIC [1] of 0.31 µg/mL (≈ 0.748 µM), an MIC [2] of over 128 µg/mL and an MIC [3] of 8 µg/mL (≈ 19.3 µM). It also gave an MIC [4] of 0.08 µg/mL (≈ 0.193 µM), an MIC [5] of 0.63 µg/mL (≈ 1.52 µM) and an MIC [6] of 1.56 µg/mL (≈ 3.76 µM). The MIC [7] was 3.13 µg/mL (≈ 7.55 µM).
O=C(O)c1cn(C2CC2)c2cc(N3CCC4=C(C3)/C(=N/O)CCS4)c(F)cc2c1=O was tested, and the MIC [1] was 0.63 µg/mL (≈ 1.47 µM), the MIC [2] was 2 µg/mL (≈ 4.66 µM) and the MIC [3] was 1 µg/mL (≈ 2.33 µM). It also gave an MIC [4] of 2 µg/mL (≈ 4.66 µM), an MIC [5] of 0.63 µg/mL (≈ 1.47 µM) and an MIC [6] of 0.63 µg/mL (≈ 1.47 µM). For the same compound, the MIC [7] was 2.5 µg/mL (≈ 5.82 µM).
With Nc1cc2c(=O)c(C(=O)O)cn(C3CC3)c2cc1N1CCC2=C(C1)C(O)CCS2 (stereo unspecified) the MIC [1] was 12.5 µg/mL (≈ 30.2 µM), the MIC [2] was 128 µg/mL (≈ 310 µM) and the MIC [3] was 128 µg/mL (≈ 310 µM). For the same compound, the MIC [4] was 16 µg/mL (≈ 38.7 µM), the MIC [5] was 25 µg/mL (≈ 60.5 µM) and the MIC [6] was 25 µg/mL (≈ 60.5 µM). The MIC [7] was over 100 µg/mL.

Source: ChEMBL document CHEMBL1155486, “From 6-aminoquinolone antibacterials to 6-amino-7-thiopyranopyridinylquinolone ethyl esters as inhibitors of Staphylococcus aureus multidrug efflux pumps” (2010)
